Biological target: T1, hematopoietic prostaglandin D2 synthase (HPGDS) (Homo sapiens, UniProt O60760)
T1 construct: human recombinant
Experiment: fluorescence polarisation probe-displacement assay (Cayman kit #[…]), recombinant human HPGDS
Assay type: binding

T1 sequence (O60760 whole entry): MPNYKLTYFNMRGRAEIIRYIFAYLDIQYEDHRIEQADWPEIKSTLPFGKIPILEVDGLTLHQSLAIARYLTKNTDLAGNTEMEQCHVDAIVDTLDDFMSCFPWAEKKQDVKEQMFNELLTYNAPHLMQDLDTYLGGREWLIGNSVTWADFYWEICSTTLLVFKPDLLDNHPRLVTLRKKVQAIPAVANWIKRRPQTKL

IC50: 1540 ± 260 nM
Substance: PK007
